The values below come from patent US20260200937A1, “EXATECAN HYD[…] USE THEREOF” (HANGZHOU ADCORIS BIOPHARMA CO., LTD, priority 2023, published 2026).

Type in all cases: cell-based
Experiment [1] relates to SK-BR-3: human breast cancer cells. Briefly: Tumor cell growth inhibition (CCK-8, 72 h), SK-BR-3. The settings on record: SK-BR-3 cells, 72 h incubation, read-out: IC50 for inhibiting the growth of tumor cells, SK-BR-3. As for the experimental part:
(§1) • OE33: human esophageal cancer cells; • SK-BR-3: human breast cancer cells; • NCI-N87: human gastric cancer cells; • NCI-H1975: human lung cancer cells; • MDA-MB-231: human breast cancer cells; • NCI-H226: human lung squamous cell carcinoma cells; • TE12: human esophageal cancer cells.
(§2) Tumor cells OE33, SK-BR-3, NCI-N87, NCI-H1975, MDA-MB-231, NCI-H226, and TE12 were cultured separately in RPMI1640 (Cellmax) supplemented with 10% fetal bovine serum (Cellmax). Tumor cells in the exponential growth phase were diluted to a concentration of 1×10^5 cells/mL with culture medium and added to 96-well cell culture plates at 100 μL per well, then returned and incubated overnight in a 37° C. incubator with 5% CO2. On the following day, the compounds were diluted to concentrations of 10000 nM, 2000 nM, 400 nM, 80 nM, 16 nM, 3.2 nM, 0.64 nM, and 0.13 nM with culture medium, and the diluted compounds were added to the 96-well cell culture plates at 2 μL per well, with three replicate wells for each concentration. Negative control and blank control groups without addition of compounds were added with 2 μL of the dilution liquid per well. After the addition of the compounds, the plates were returned to the 37° C. incubator with 5% CO2 to continue the incubation for 72 h. After the incubation, the cell culture plates were removed, and the culture medium in the plates was aspirated using a pipette. Then, 100 μL of culture medium containing 10% CCK-8 was added to each well, and the plates were incubated at 37° C. for 3 h. After the incubation, the plates were removed, kept in the dark, and placed in an […]. Absorbance was measured at 630 nm as the reference wavelength and 450 nm as the test wavelength. Based on the absorbance values, the IC50 values (Table 1) were calculated using the four-parameter logistic regression method in GraphPad.

Experiment [2] relates to OE33: human esophageal cancer cells. The experiment can be described thus: Tumor cell growth inhibition (CCK-8, 72 h), OE33. The settings on record: 72 h incubation, read-out: IC50 for inhibiting the growth of tumor cells, OE33. The method, then: as §1, §2
Experiment [3] concerns TE12: human esophageal cancer cells. Briefly: Tumor cell growth inhibition (CCK-8, 72 h), TE12. The settings on record: 72 h incubation, read-out: IC50 for inhibiting the growth of tumor cells, TE12. The method, then:
as §1, §2

The test system of experiment [4] is NCI-N87: human gastric cancer cells. The experiment can be described thus: Tumor cell growth inhibition (CCK-8, 72 h), NCI-N87. The settings on record: 72 h incubation, read-out: IC50 for inhibiting the growth of tumor cells, NCI-N87. As for the experimental part: as §1, §2
Experiment [5] relates to NCI-H1975: human lung cancer cells. Briefly: Tumor cell growth inhibition (CCK-8, 72 h), NCI-H1975. The settings on record: 72 h incubation, read-out: IC50 for inhibiting the growth of tumor cells, NCI-H1975. As for the experimental part: as §1, §2
Experiment [6] relates to MDA-MB-231: human breast cancer cells. The experiment can be described thus: Tumor cell growth inhibition (CCK-8, 72 h), MDA-MB-231. The settings on record: MDA-MB-231 cells, 72 h incubation, read-out: IC50 for inhibiting the growth of tumor cells, MDA-MB-231. As for the experimental part: as §1, §2
For experiment [7], the system named is NCI-H226: human lung squamous cell carcinoma cells. Briefly: Tumor cell growth inhibition (CCK-8, 72 h), NCI-H226. The settings on record: 72 h incubation, read-out: IC50 for inhibiting the growth of tumor cells, NCI-H226. As for the experimental part:
as §1, §2

SMILES strings stand for the structures. Read-outs that look alike come from different tables or passages of the source.

The term IC50 denotes the concentration that gives 50% inhibition.

For `CC[C@@]1(O)C(=O)OCc2c1cc1n(c2=O)Cc2c-1nc1cc(F)c(C)c3c1c2[C@@H](NC(=O)C1(ONC)CCC1)CC3` [Compound D2, N-(1′-O—(N-methylamino)oxycyclobutane-1′-carbonyl)exatecan], the IC50 in experiment [1] (Homo sapiens) came to 2.62 nM; in experiment [2] (Homo sapiens) it was 1.95 nM; in experiment [3] (Homo sapiens), 13.6 nM; in experiment [4] (Homo sapiens) it was 1.11 nM; in experiment [5] (Homo sapiens), 26.7 nM; in experiment [6] (Homo sapiens), 236 nM. Further, the IC50 in experiment [7] (Homo sapiens) worked out at 6.35 nM.

Consider `CC[C@@]1(O)C(=O)OCc2c1cc1n(c2=O)Cc2c-1nc1cc(F)c(C)c3c1c2[C@@H](NC(=O)[C@H](C)ONC)CC3` [Compound D3, N-(2′-methyl-2′-O—(N-methylamino)oxyacetyl)exatecan], for which the IC50 in experiment [1] (Homo sapiens) was determined as 4.84 nM; in experiment [2] (Homo sapiens), 3.8 nM; in experiment [3] (Homo sapiens) it was 18.5 nM; in experiment [4] (Homo sapiens), 1.69 nM; in experiment [5] (Homo sapiens), 36.9 nM; in experiment [6] (Homo sapiens) it was 237 nM. For the same compound, in experiment [7] (Homo sapiens), the IC50 was 7.65 nM.

For `[2H]C([2H])([2H])NOC([2H])([2H])C(=O)N[C@H]1CCc2c(C)c(F)cc3nc4c(c1c23)Cn1c-4cc2c(c1=O)COC(=O)[C@]2(O)CC` [Compound D4, N-(2′,2′-dideuterio-2′-O—(N-trideuteriomethylamino)oxyacetyl)exatecan], the IC50 in experiment [1] (Homo sapiens) was 4.48 nM; in experiment [2] (Homo sapiens), 5.56 nM; in experiment [3] (Homo sapiens), 33.1 nM; in experiment [4] (Homo sapiens), 3.68 nM; in experiment [5] (Homo sapiens) it was 64.4 nM; in experiment [6] (Homo sapiens), 425 nM. Moreover, in experiment [7] (Homo sapiens), the IC50 came out at 20.8 nM.

With `[2H]C([2H])([2H])NOCC(=O)N[C@H]1CCc2c(C)c(F)cc3nc4c(c1c23)Cn1c-4cc2c(c1=O)COC(=O)[C@]2(O)CC` [Compound D1, N-(2′-O—(N-trideuteriomethylamino)oxyacetyl)exatecan], the IC50 in experiment [1] (Homo sapiens) is 2.59 nM; in experiment [2] (Homo sapiens), 4.32 nM; in experiment [3] (Homo sapiens), 36.7 nM; in experiment [4] (Homo sapiens), 2.44 nM; in experiment [5] (Homo sapiens), 65 nM; in experiment [6] (Homo sapiens), 183 nM. Besides, the IC50 in experiment [7] (Homo sapiens) turned out to be 22.8 nM.

For `CC[C@@]1(O)C(=O)OCc2c1cc1n(c2=O)Cc2c-1nc1cc(F)c(C)c3c1c2[C@@H](NC(=O)C1CNOC1)CC3` (stereo partly drawn) [Compound D5, N-(isoxazolidine-4′-carbonyl)exatecan], the IC50 in experiment [1] (Homo sapiens) came out at 15.4 nM; in experiment [2] (Homo sapiens) it was 22.5 nM; in experiment [3] (Homo sapiens) it was 94.9 nM; in experiment [4] (Homo sapiens), 6.84 nM; in experiment [5] (Homo sapiens), 97.4 nM; in experiment [6] (Homo sapiens) it was 351 nM. In addition, in experiment [7] (Homo sapiens), the IC50 came to 49.7 nM.

With `CC[C@@]1(O)C(=O)OCc2c1cc1n(c2=O)Cc2c-1nc1cc(F)c(C)c3c1c2[C@@H](NC(=O)CO)CC3` [Dxd, reference compound], the IC50 stood at 9.69 nM in experiment [1]; 7.01 nM in experiment [2]; 21.5 nM in experiment [3]; 2.48 nM in experiment [4]; 25.7 nM in experiment [5]; 320 nM in experiment [6]. Besides, the IC50 in experiment [7] came to 75.1 nM.
